The results in this text go back to ChEMBL document CHEMBL1151393, “Biologically active pyrrolizidine alkaloids from the true forget-me-not, Myosotis scorpioides” (J Nat Prod, 1982).

Each structure is given as a SMILES string.

Type in all cases: organism-based
Conditions in all cases: in vivo

Data set [1] relates to Mus musculus. The experiment in a line: Toxicity in BS1 mouse assessed as occurrence of liver lesions at 250 mg/kg, ip. More on the design: dose 250 mg/kg, route intraperitoneal.
The test system of data set [2] is Mus musculus. The experiment in a line: Toxicity in BS1 mouse at 63 mg/kg, ip. More on the design: dose 63 mg/kg, route intraperitoneal.
Data set [3] has as its system Mus musculus. Put plainly: Toxicity in BS1 mouse assessed as ataxia at 250 mg/kg, ip. Also on record: dose 250 mg/kg, route intraperitoneal.
Data set [4] deals with Mus musculus. Put plainly: Toxicity in BS1 mouse at 125 mg/kg, ip. More on the design: dose 125 mg/kg, route intraperitoneal.
Data set [5] concerns Mus musculus. The experiment in a line: Toxicity in BS1 mouse assessed as death at 500 mg/kg, ip within 4 mins. Also on record: dose 500 mg/kg, route intraperitoneal.
The subject of data set [6] is Mus musculus. Put plainly: Toxicity in BS1 mouse assessed as lethargy, ataxia, gasping and clonic convulsion at 500 mg/kg, ip within 4 mins. Also on record: dose 500 mg/kg, route intraperitoneal.
Data set [7] has as its system Mus musculus. The experiment in a line: Toxicity in BS1 mouse assessed as lethargy at 250 mg/kg, ip. Also on record: dose 250 mg/kg, route intraperitoneal.

In the case of `C/C=C(\C)C(=O)O[C@@H](C)[C@](O)(C(=O)OCC1=CCN2CC[C@@H](OC(C)=O)[C@@H]12)C(C)C`, the Activity result in the data set with Mus musculus [1] is listed as “Non-toxic”; in the data set on Mus musculus [2], “Non-toxic”; in the data set on Mus musculus [3], “Toxic”; in the data set with Mus musculus [4], “Non-toxic”; in the data set on Mus musculus [5], “Toxic”; with Mus musculus [6], “Toxic”. In addition, the Activity entry with Mus musculus [7] is given as “Toxic”.

In the case of `C/C=C(\C)C(=O)O[C@@H](C)[C@](O)(C(=O)OCC1=CCN2CC[C@@H](O)[C@@H]12)C(C)C` [SCORPIOIDINE], the Activity entry is “Non-toxic” with Mus musculus [1]; “Non-toxic” with Mus musculus [2]; “Toxic” in the data set with Mus musculus [3]; “Non-toxic” in the data set on Mus musculus [4]; “Toxic” in the data set with Mus musculus [5]; “Toxic” with Mus musculus [6]. Besides, the Activity entry with Mus musculus [7] was “Toxic”.
